{"source": "patent US11149047B2", "about": "“Aryl imidazoles for treatment of cancer” (Aptose Biosciences Inc., priority 2017, dated 2021)", "key": {"[1]": {"test_system": "AML cells (MV4-11, KG-1, EOL-1)", "assay": "Flow cytometry cell-cycle analysis, time course", "type": "cell-based", "conditions": "IC50 concentration", "procedure": "(§1) Cells were treated as described above. To determine apoptosis, cells were stained with FITC-Annexin V and propidium iodide (PI; BD Pharmingen, catalog #556570) and then analyzed on BD Accuri C6 flow cytometer. To measure DNA synthesis and phases of cell cycle, treated cells were stained with 5-ethynyl-2′-deoxyuridine (Edu) Alexa Fluor 488 (Thermo Fisher Scientific, catalog #C10425) and PI (PI/RNase A staining solution, BD Biosciences, catalog #550825). The dead cells were excluded from analysis by using Live/Dead Fixable Far Red Dead Cell Stain Kit (Thermo Fisher Scientific, catalog #L34973). Staining was performed as per the manufacturers' instructions.\nThere was no perturbation of cell-cycle phase distribution in cells treated with vehicle alone. An increase in the fraction of cells in G0-G1 was detected as early as 2 hours, and this fraction continued to increase in a time-dependent manner throughout the 24-hour period of drug exposure (FIGS. 9D-F)."}, "[2]": {"test_system": "DNA double strand breaks in CAOV3 cells", "assay": "Neutral comet assay", "type": "cell-based, human", "procedure": "Comet assay kits were purchased from Trevigen (Gaithersburg, Md.) and neutral comet assay was performed according to the manufacturer's instructions. Images were collected with a Keyence Fluorescent Microscope (Keyence America, Itasca, Ill.) and quantitated with OpenComet software.\nThe structure of COMPOUND I is similar to drugs that bind to quadruplex structures in DNA which results in strand breaks; this led to the investigation of whether COMPOUND I caused damage to DNA. The parental Raji cells were treated with 0.5 μM COMPOUND I for increasing periods of time and induction of DNA damage was assessed by accumulation of the phosphorylated forms of ATM and γH2AX measured by Western blot analysis. […] Raji cells have very small nuclei making it difficult to quantify the formation of γH2AX foci, so the human ovarian carcinoma cell line CAOV3 was used for this purpose. […] Evidence of DNA damage was further strengthened by the results of the neutral comet assay which mainly detects DNA double strand breaks (FIG. 2D)."}, "[3]": {"test_system": "BIK, BAD, MCL-1 in Raji cells", "assay": "Western blot of proteins involved in apoptosis", "type": "cell-based, human", "conditions": "0.5 μM, 24 h, n=3"}, "MV4-11 cells": {"test_system": "MV4-11 cells", "assay": "Flow cytometry cell-cycle analysis", "type": "cell-based", "conditions": "1 μmol/L, 24-hour exposure", "procedure": "as §1\n(§2) Previous studies reported upregulation of KLF4 and CDKN1A expression as a potential mechanism of APT0-COMPOUND I activity in tumors. […] The upregulation of CDKN1A mRNA increased with duration of exposure in all AML cell lines tested (FIGS. 15D and 15E). At later time points, CDKN1A expression began to decrease, likely due to increasing cell death. Induction of CDKN1A expression is typically associated with a subsequent G0-G1, cell-cycle arrest, which was observed following COMPOUND I treatment of solid tumor lines."}, "[4]": {"test_system": "H3K27ac at the MYC promoter in MV4-11 cells", "assay": "ChIP-qPCR for H3K27ac", "type": "cell-based", "conditions": "500 nmol/L", "procedure": "MV4-11 cells were treated with vehicle DMSO or 500 nmol/L COMPOUND I for 2, 6, or 24 hours and then crosslinked with 1% formaldehyde. Chromatin was extracted by sonication and then incubated with H3K27ac (Active Motif #39133) antibody overnight. The antibody:DNA complexes were isolated with Protein G beads (Invitrogen Dynabeads catalog #10004D) and analyzed by qPCR with primers specific to the MYC promoter (Table 7). H3K27ac enrichment was calculated as fold over input DNA control.\nRegulation of MYC expression is a complex process that involves MYC transcription, mRNA stability, and protein turnover. ChIP-qPCR analysis for H3K27ac, a well-established marker of active chromatin, was performed to assess transcriptional competency of the MYC gene promoter after treatment with COMPOUND I (FIG. 19D). […] To determine whether COMPOUND I affected MYC mRNA stability, an RNA decay assay was performed on EOL-1 cells."}, "[5]": {"test_system": "TP53, phos-CHEK1, γH2AX, MAPK14, MAPK8 in MV4-11 cells", "assay": "Western blot of DNA damage and cell stress pathways", "type": "cell-based", "conditions": "500 nmol/L", "procedure": "Cells were treated as described above. Whole-cell lysates were prepared, separated by SDS-PAGE, and transferred to nitrocellulose membranes. Densitometry was performed using ImageJ or Image Studio Lite Version5.2 software and normalized to the density of GAPDH.\nThe increase in total protein was concomitant with an increase in phospho-Ser15 and acetyl-K382 (FIG. 12B). TP53 is phosphorylated at Ser15 and Ser20 in response to DNA damage, which reduces MDM2 binding and proteasomal degradation of p53. Furthermore, p53 is acetylated in response to cellular stress, and this modification can further stabilize TP53 protein levels and modulate binding activity. Activation of TP53 can trigger apoptosis through upregulation of proapoptotic factors such as BBC3 (PUMA), PMAIP1 (NOXA), and BAX. […] A concentration-dependent increase in ? H2AX was detected in all AML lines tested, thereby adding further credence to the concept that COMPOUND I triggers the DDR pathway (FIG. 12D)."}, "[6]": {"test_system": "KLF4 and CDKN1A expression in AML cell lines", "assay": "qRT-PCR of KLF4 and CDKN1A (p21) expression", "type": "cell-based", "procedure": "Cells were treated with vehicle or COMPOUND I at various concentrations for 24 hours or at a single concentration for 1, 3, 6, 12, and 24 hours before harvesting. Cells were lysed by QiaShredder columns (QIAGEN, catalog #79656), total RNA was isolated using QIAGEN RNeasy Plus Mini Kit (catalog #74134), and cDNA was synthesized utilizing Transcriptor Universal cDNA master mix (Roche, catalog #05893151001) and then used for qRT-PCR analysis using FastStart essential DNA probes master mix (Roche, catalog #06402682001) and Roche LightCycler96. Primer probe pairs were purchased from IDT (Table 5). Expression was calculated as fold change over vehicle treated samples after normalizing to GAPDH […].\nas §2"}}}
{"smiles": "Cc1[nH]c2ccc(F)cc2c1-c1nc2c3cccnc3c3ncccc3c2[nH]1", "note": "[COMPOUND I, 2-(5-fluoro-2-methyl-1H-indol-3-yl)-1H-imidazo[4,5-f][1,10]phenanthroline]", "values": [{"measurement": "earliest time an increase in the fraction of cells in G0-G1 was detected", "setting": "[1]", "value": 2, "unit": "h"}, {"measurement": "tail DNA vs DMSO", "setting": "[2]; 0.5 μM, 6 h", "value": "no increase in tail DNA"}, {"measurement": "DNA in comet tails", "setting": "[2]; 6 h treatment then 18 h drug free media (pulse-chase)", "value": "significantly more DNA in the comet tails"}, {"measurement": "BAD increase vs DMSO control", "setting": "[3]", "value": "2.1±0.25", "unit": "fold"}, {"measurement": "BIK increase vs DMSO control", "setting": "[3]", "value": "47.5±16.8", "unit": "%"}, {"measurement": "MCL-1 decrease vs DMSO control", "setting": "[3]", "value": "38.1±2.3", "unit": "%"}, {"measurement": "G0-G1 cell-cycle arrest", "setting": "MV4-11 cells", "value": "all live cells had arrested in G0-G1"}, {"measurement": "earliest time a decrease in H3K27ac at the MYC promoter was observed", "setting": "[4]", "value": 2, "unit": "h"}, {"measurement": "time at which an increase in phos-CHEK1 was detected", "setting": "[5]", "value": 1, "unit": "h"}, {"measurement": "time of phos-CHEK1 peak", "setting": "[5]", "value": "approximately 4 hours"}, {"measurement": "MAPK14 and MAPK8 phosphorylation", "setting": "[5]; 4- to 6-hour treatment", "value": "increase in both MAPK14 phos-T180 and MAPK8 phos-Thr183/pTyr185"}, {"measurement": "DDR marker γH2AX", "setting": "[5]; by 6 hours", "value": "robust increase"}, {"measurement": "TP53 levels", "setting": "[5]; 1, 3, and 6 hours", "value": "significant increase in TP53 levels"}, {"measurement": "AML cell lines with upregulated KLF4 expression", "setting": "[6]; 24 hr treatment, FIG. 15A", "value": "4 of 6"}, {"measurement": "CDKN1A (p21) expression", "setting": "[6]; FIGS. 15B and 15C", "value": "induced in all AML cell lines in a concentration-dependent manner"}]}
